Test results: ChEMBL document CHEMBL4837183, “Antiproliferative Bufadienolides from the Bulbs of Drimia altissima” (2021)

What was measured:
Type in all cases: functional
[1] = system: SN12C; assay: Growth inhibition of human SN12C cells measured after 48 hrs by SRB assay
[2] = system: Malme-3M; assay: Growth inhibition of human Malme-3M cells measured after 48 hrs by SRB assay
[3] = system: MDA-MB-231; assay: Growth inhibition of human MDA-MB-231 cells measured after 48 hrs by SRB assay
[4] = system: LOX IMVI; assay: Growth inhibition of human LOX IMVI cells measured after 48 hrs by SRB assay
[5] = system: SK-OV-3; assay: Growth inhibition of human SK-OV-3 cells measured after 48 hrs by SRB assay
[6] = system: CCRF-CEM; assay: Growth inhibition of human CCRF-CEM cells measured after 48 hrs by SRB assay
[7] = system: HCT-116; assay: Growth inhibition of human HCT-116 cells measured after 48 hrs by SRB assay
[8] = system: MDA-MB-468; assay: Growth inhibition of human MDA-MB-468 cells measured after 48 hrs by SRB assay
[9] = system: M14; assay: Growth inhibition of human M14 cells measured after 48 hrs by SRB assay
[10] = system: UACC-62; assay: Growth inhibition of human UACC-62 cells measured after 48 hrs by SRB assay
[11] = system: SNB-75; assay: Growth inhibition of human SNB-75 cells measured after 48 hrs by SRB assay
[12] = system: Hs-578T; assay: Growth inhibition of human Hs-578T cells measured after 48 hrs by SRB assay
[13] = system: PC-3; assay: Growth inhibition of human PC-3 cells measured after 48 hrs by SRB assay
[14] = system: UO-31; assay: Growth inhibition of human UO-31 cells measured after 48 hrs by SRB assay
[15] = system: ACHN; assay: Growth inhibition of human ACHN cells measured after 48 hrs by SRB assay
[16] = system: A549; assay: Growth inhibition of human A549 cells measured after 48 hrs by SRB assay
[17] = system: OVCAR-5; assay: Growth inhibition of human OVCAR-5 cells measured after 48 hrs by SRB assay
[18] = system: SF-268; assay: Growth inhibition of human SF-268 cells measured after 48 hrs by SRB assay
[19] = system: NCI-H460; assay: Growth inhibition of human NCI-H460 cells measured after 48 hrs by SRB assay
[20] = system: MOLT-4; assay: Growth inhibition of human MOLT-4 cells measured after 48 hrs by SRB assay
[21] = system: SK-MEL-2; assay: Growth inhibition of human SK-MEL-2 cells measured after 48 hrs by SRB assay
[22] = system: NCI/ADR-RES; assay: Growth inhibition of human NCI/ADR-RES cells measured after 48 hrs by SRB assay
[23] = system: HOP-92; assay: Growth inhibition of human HOP-92 cells measured after 48 hrs by SRB assay
[24] = system: SNB-19; assay: Growth inhibition of human SNB-19 cells measured after 48 hrs by SRB assay
[25] = system: HCC 2998; assay: Growth inhibition of human HCC 2998 cells measured after 48 hrs by SRB assay
[26] = system: SK-MEL-28; assay: Growth inhibition of human SK-MEL-28 cells measured after 48 hrs by SRB assay
[27] = system: SR; assay: Growth inhibition of human SR cells measured after 48 hrs by SRB assay
[28] = system: SW-620; assay: Growth inhibition of human SW-620 cells measured after 48 hrs by SRB assay
[29] = system: NCI-H522; assay: Growth inhibition of human NCI-H522 cells measured after 48 hrs by SRB assay
[30] = system: 786-0; assay: Growth inhibition of human 786-0 cells measured after 48 hrs by SRB assay
[31] = system: KM12; assay: Growth inhibition of human KM12 cells measured after 48 hrs by SRB assay
[32] = system: MDA-MB-435; assay: Growth inhibition of human MDA-MB-435 cells measured after 48 hrs by SRB assay
[33] = system: SF-295; assay: Growth inhibition of human SF-295 cells measured after 48 hrs by SRB assay
[34] = system: HOP-62; assay: Growth inhibition of human HOP-62 cells measured after 48 hrs by SRB assay
[35] = system: HT-29; assay: Growth inhibition of human HT-29 cells measured after 48 hrs by SRB assay
[36] = system: RXF 393; assay: Growth inhibition of human RXF 393 cells measured after 48 hrs by SRB assay
[37] = system: MCF7; assay: Growth inhibition of human MCF7 cells measured after 48 hrs by SRB assay
[38] = system: NCI-H226; assay: Growth inhibition of human NCI-H226 cells measured after 48 hrs by SRB assay
[39] = system: SF-539; assay: Growth inhibition of human SF-539 cells measured after 48 hrs by SRB assay
[40] = system: BT-549; assay: Growth inhibition of human BT-549 cells measured after 48 hrs by SRB assay
[41] = system: NCI-H23; assay: Growth inhibition of human NCI-H23 cells measured after 48 hrs by SRB assay
[42] = system: HCT-15; assay: Growth inhibition of human HCT-15 cells measured after 48 hrs by SRB assay
[43] = system: OVCAR-8; assay: Growth inhibition of human OVCAR-8 cells measured after 48 hrs by SRB assay
[44] = system: NCI-H322M; assay: Growth inhibition of human NCI-H322M cells measured after 48 hrs by SRB assay
[45] = system: U-251; assay: Growth inhibition of human U-251 cells measured after 48 hrs by SRB assay
[46] = system: OVCAR-3; assay: Growth inhibition of human OVCAR-3 cells measured after 48 hrs by SRB assay
[47] = system: DU-145; assay: Growth inhibition of human DU-145 cells measured after 48 hrs by SRB assay
[48] = system: COLO 205; assay: Growth inhibition of human COLO 205 cells measured after 48 hrs by SRB assay
[49] = system: T47D; assay: Growth inhibition of human T47D cells measured after 48 hrs by SRB assay
[50] = system: K562; assay: Growth inhibition of human K562 cells measured after 48 hrs by SRB assay
[51] = system: SK-MEL-5; assay: Growth inhibition of human SK-MEL-5 cells measured after 48 hrs by SRB assay
[52] = system: CAKI-1; assay: Growth inhibition of human CAKI-1 cells measured after 48 hrs by SRB assay
[53] = system: HL-60; assay: Growth inhibition of human HL-60 cells measured after 48 hrs by SRB assay
[54] = system: UACC-257; assay: Growth inhibition of human UACC-257 cells measured after 48 hrs by SRB assay
[55] = system: IGROV-1; assay: Growth inhibition of human IGROV-1 cells measured after 48 hrs by SRB assay
[56] = system: TK-10; assay: Growth inhibition of human TK-10 cells measured after 48 hrs by SRB assay
[57] = system: A498; assay: Growth inhibition of human A498 cells measured after 48 hrs by SRB assay

CC(=O)OC[C@H]1O[C@@H](O[C@@H]2C=C3CC[C@@H]4[C@H](C(=O)C[C@]5(C)[C@@H](c6ccc(=O)oc6)CC[C@]45O)[C@@]3(C)CC2)[C@H](OC(C)=O)[C@@H](OC(C)=O)[C@@H]1OC(C)=O
GI50 [1]: 4850 nM
GI50 [2]: 9730 nM
GI50 [3]: > 10000 nM
GI50 [4]: > 10000 nM
GI50 [5]: > 10000 nM
GI50 [6]: 6970 nM
GI50 [7]: 4440 nM
GI50 [8]: > 10000 nM
GI50 [9]: > 10000 nM
GI50 [10]: > 10000 nM
GI50 [11]: > 10000 nM
GI50 [12]: 3790 nM
GI50 [13]: > 10000 nM
GI50 [14]: 6060 nM
GI50 [15]: 2320 nM
GI50 [16]: 4780 nM
GI50 [17]: > 10000 nM
GI50 [18]: 5640 nM
GI50 [19]: 3530 nM
GI50 [20]: 5120 nM
GI50 [21]: > 10000 nM
GI50 [22]: > 10000 nM
GI50 [23]: > 10000 nM
GI50 [24]: > 10000 nM
GI50 [25]: > 10000 nM
GI50 [26]: > 10000 nM
GI50 [27]: > 10000 nM
GI50 [28]: 7060 nM
GI50 [29]: 3960 nM
GI50 [30]: 7330 nM
GI50 [31]: > 10000 nM
GI50 [32]: > 10000 nM
GI50 [33]: 7350 nM
GI50 [34]: 6880 nM
GI50 [35]: > 10000 nM
GI50 [36]: 2310 nM
GI50 [37]: 7710 nM
GI50 [38]: > 10000 nM
GI50 [39]: 6010 nM
GI50 [40]: 5010 nM
GI50 [41]: 8310 nM
GI50 [42]: > 10000 nM
GI50 [43]: > 10000 nM
GI50 [44]: > 10000 nM
GI50 [45]: > 10000 nM
GI50 [46]: 4000 nM
GI50 [47]: 6100 nM
GI50 [48]: > 10000 nM
GI50 [49]: > 10000 nM
GI50 [50]: > 10000 nM
GI50 [51]: 5090 nM
GI50 [52]: 7280 nM
GI50 [53]: 7370 nM
GI50 [54]: > 10000 nM
GI50 [55]: > 10000 nM
GI50 [56]: 6220 nM
GI50 [57]: 2890 nM

C[C@]12C[C@H](O)[C@H]3[C@@H](CCC4=C[C@@H](O[C@@H]5O[C@H](CO)[C@@H](O)[C@H](O)[C@H]5O)CC[C@@]43CO)[C@@]1(O)CC[C@@H]2c1ccc(=O)oc1
GI50 [1]: 6 nM
GI50 [2]: 17 nM
GI50 [3]: 53 nM
GI50 [4]: 18 nM
GI50 [5]: 51 nM
GI50 [6]: 7 nM
GI50 [7]: 5 nM
GI50 [8]: 44 nM
GI50 [9]: 31 nM
GI50 [10]: 25 nM
GI50 [11]: 23 nM
GI50 [12]: 6 nM
GI50 [13]: 13 nM
GI50 [14]: 9 nM
GI50 [15]: 5 nM
GI50 [16]: 4 nM
GI50 [17]: 17 nM
GI50 [18]: 7 nM
GI50 [19]: 6 nM
GI50 [20]: 7 nM
GI50 [21]: 45 nM
GI50 [22]: 8 nM
GI50 [23]: 22 nM
GI50 [24]: 48 nM
GI50 [25]: 52 nM
GI50 [26]: 37 nM
GI50 [27]: 24 nM
GI50 [28]: 17 nM
GI50 [29]: 6 nM
GI50 [30]: 7 nM
GI50 [31]: 29 nM
GI50 [32]: 33 nM
GI50 [33]: 11 nM
GI50 [34]: 6 nM
GI50 [35]: 15 nM
GI50 [36]: 5 nM
GI50 [37]: 9 nM
GI50 [38]: 22 nM
GI50 [39]: 3 nM
GI50 [40]: 4 nM
GI50 [41]: 8 nM
GI50 [42]: 17 nM
GI50 [43]: 15 nM
GI50 [44]: 7 nM
GI50 [45]: 25 nM
GI50 [46]: 8 nM
GI50 [47]: 6 nM
GI50 [48]: 43 nM
GI50 [49]: 24 nM
GI50 [50]: 30 nM
GI50 [51]: 20 nM
GI50 [52]: 8 nM
GI50 [53]: 7 nM
GI50 [54]: 42 nM
GI50 [55]: 16 nM
GI50 [56]: 8 nM
GI50 [57]: 12 nM
